Data: ChEMBL document CHEMBL1201862, “PubChem BioAssay data set” (2004)
The source made the active and inactive calls.

Key:
[1] = molecular target: Potassium voltage-gated channel subfamily KQT member 2 (Rattus norvegicus, UniProt O88943); assay: KCNQ2 potassium channel inhibitors, dose response, cell-based, automated electrophysiology, set II, rat KCNQ2 (AID 588637); format: functional
H9c2 = assay: cells; format: functional, cell-based; settings: Rattus norvegicus, H9c2, Myocardium;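 note: confirmatory concentration-response retest of ultra-high-throughput screening hits for modulation of myocardial damage; cell death induced by hydrogen peroxide oxidative stress; compound pretreatment for 60 min then peroxide exposure for 2 h; potency is for protecting the cells against peroxide damage rather than for killing them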
[2] = molecular target: T1, High affinity choline transporter 1 (Homo sapiens, UniProt Q9GZV3); assay: CHT inhibitors, dose response, cell-based, 5-point CRC, membrane potential dye (AID 504840); format: functional
T1 sequence (Q9GZV3 whole entry): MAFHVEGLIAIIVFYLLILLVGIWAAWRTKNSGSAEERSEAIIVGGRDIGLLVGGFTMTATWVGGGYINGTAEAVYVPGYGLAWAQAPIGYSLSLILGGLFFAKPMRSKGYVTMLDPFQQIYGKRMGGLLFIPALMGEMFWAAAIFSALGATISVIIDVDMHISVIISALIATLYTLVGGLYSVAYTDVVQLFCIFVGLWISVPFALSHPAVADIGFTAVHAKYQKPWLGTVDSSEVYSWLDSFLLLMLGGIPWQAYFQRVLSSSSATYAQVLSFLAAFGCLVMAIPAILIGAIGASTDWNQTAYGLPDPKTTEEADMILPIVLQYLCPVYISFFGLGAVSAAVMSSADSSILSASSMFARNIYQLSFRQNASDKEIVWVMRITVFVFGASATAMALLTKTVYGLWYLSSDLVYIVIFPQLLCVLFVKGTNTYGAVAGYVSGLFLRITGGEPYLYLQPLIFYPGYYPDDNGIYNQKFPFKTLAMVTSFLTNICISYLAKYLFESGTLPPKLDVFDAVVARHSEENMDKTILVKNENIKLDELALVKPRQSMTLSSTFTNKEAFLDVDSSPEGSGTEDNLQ

[3] = molecular target: T1, High affinity choline transporter 1; assay: CHT inhibitors, dose response, cell-based, 10-point CRC, membrane potential dye (AID 588401); format: functional;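 note: membrane potential dye fluorescence of choline-evoked depolarization via CHT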
[4] = tested on: Streptococcus sp. 'group A'; assay: growth inhibition of control SK(-) GAS strain, dose response, counter-screen for streptokinase expression inhibitor project, luminescence, kanamycin, BacTiterGlo, confirmation (AID 1900); format: functional, organism-based
Streptococcus = assay: Group A Streptococcus viability loss, dose response, counter-screen for streptokinase expression inhibitor project, luminescence, BacTiterGlo (AID 1915); format: functional, organism-based;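 note: potency for reduction of bacterial viability or growth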
Streptokinase A = molecular target: T2, Streptokinase A (Streptococcus pyogenes serotype M1, UniProt P10520); assay: S. pyogenes streptokinase expression inhibitors, potency, dose response, plasminogen activation absorbance, OD405 (AID 1914); format: functional, Streptococcus pyogenes M1 GAS;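 note: secreted streptokinase activity via plasminogen activation per viability signal from cell pellet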
T2 sequence (P10520 whole entry): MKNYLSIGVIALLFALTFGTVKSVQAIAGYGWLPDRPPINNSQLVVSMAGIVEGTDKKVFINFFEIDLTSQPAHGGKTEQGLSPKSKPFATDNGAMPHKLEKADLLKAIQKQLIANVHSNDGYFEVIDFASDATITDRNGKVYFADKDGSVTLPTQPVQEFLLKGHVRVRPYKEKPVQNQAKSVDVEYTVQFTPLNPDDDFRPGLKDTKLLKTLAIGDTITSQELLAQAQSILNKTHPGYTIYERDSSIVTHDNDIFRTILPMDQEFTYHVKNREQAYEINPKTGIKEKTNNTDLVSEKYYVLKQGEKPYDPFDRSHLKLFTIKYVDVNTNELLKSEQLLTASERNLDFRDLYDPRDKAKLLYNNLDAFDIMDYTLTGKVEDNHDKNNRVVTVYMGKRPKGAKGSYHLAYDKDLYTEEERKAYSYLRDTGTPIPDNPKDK

[5] = molecular target: FAD-linked sulfhydryl oxidase ALR (Homo sapiens, UniProt P55789); assay: inhibitors of human ALR sulfhydryl oxidase, dose response, biochemical, H2O2 detection, luminescence, cherry-pick (AID 493248)
[6] = molecular target: T3, Orexin/Hypocretin receptor type 1 (Homo sapiens, UniProt O43613); assay: Homogeneous Time Resolved Fluorescence (HTRF)-based cell-based high throughput dose response assay for antagonists of the orexin 1 receptor (OX1R; HCRTR1). [Related pubchem assays (depositor defined):AID434989, AID435008, AID463079, AID485270, AID492963, AID492964, AID492965, AID493232, AID504717, AID504718]; format: functional
T3 sequence (O43613 whole entry): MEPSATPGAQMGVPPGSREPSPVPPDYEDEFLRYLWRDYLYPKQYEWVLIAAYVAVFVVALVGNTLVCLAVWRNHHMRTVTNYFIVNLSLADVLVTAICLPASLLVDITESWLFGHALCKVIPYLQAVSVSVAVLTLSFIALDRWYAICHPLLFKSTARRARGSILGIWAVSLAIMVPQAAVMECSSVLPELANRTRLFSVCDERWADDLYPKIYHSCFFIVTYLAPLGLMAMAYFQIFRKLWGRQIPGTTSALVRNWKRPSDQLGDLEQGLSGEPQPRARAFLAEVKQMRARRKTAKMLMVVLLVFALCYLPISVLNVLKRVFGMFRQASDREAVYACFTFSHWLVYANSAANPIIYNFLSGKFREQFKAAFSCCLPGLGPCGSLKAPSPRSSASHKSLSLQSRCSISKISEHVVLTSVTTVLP

[7] = (§1) Counterscreen for antagonists of the orexin 1 receptor (OX1R; HCRTR1): Fluorescence-based cell-based high throughput dose response assay to identify antagonists of the parental CHO cell line. [Related pubchem assays (depositor defined):AID434989, AID435008, AID463079, AID485270, AID492963, AID492964, AID492965, AID493232, AID504699, AID504701]; format: functional
[8] = HEp-2 cell cytotoxicity, dose response, cytotoxicity control for RSV inhibitor project, HTS (AID 2410); format: functional; settings: human respiratory syncytial virus
Orexin receptor type 2 [9] = molecular target: T4, Orexin receptor type 2 (Homo sapiens, UniProt O43614); assay: Counterscreen assay for antagonists of the orexin 1 receptor (OX1R; HCRTR1): Homogeneous Time Resolved Fluorescence (HTRF)-based cell-based dose response assay for antagonists of the orexin 2 receptor (OX2R; HCRTR2), run by assay provider.; format: functional
T4 sequence (O43614 whole entry): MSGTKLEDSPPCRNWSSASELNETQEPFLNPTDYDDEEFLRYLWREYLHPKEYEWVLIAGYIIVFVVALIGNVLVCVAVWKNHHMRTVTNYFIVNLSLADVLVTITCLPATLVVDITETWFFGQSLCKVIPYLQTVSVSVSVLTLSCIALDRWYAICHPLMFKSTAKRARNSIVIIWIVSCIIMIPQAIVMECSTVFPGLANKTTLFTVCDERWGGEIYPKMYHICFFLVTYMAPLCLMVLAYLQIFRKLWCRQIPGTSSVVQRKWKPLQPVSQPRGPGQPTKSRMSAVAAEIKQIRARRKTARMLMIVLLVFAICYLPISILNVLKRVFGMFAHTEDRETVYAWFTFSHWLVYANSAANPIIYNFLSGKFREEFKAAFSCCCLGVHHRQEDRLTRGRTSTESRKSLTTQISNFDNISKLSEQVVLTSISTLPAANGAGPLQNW

CHO-K1 = assay: as §1, with “Homogeneous time resolved fluorescence (HTRF)-based” for “Fluorescence-based”, “cell-based” for “cell-based high throughput”, “CHO-K1” for “CHO”; format: functional; settings: Cricetulus griseus;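 note: potency for inhibition of ATP-stimulated IP1 production as antagonists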
Orexin receptor type 2 [10] = molecular target: T4, Orexin receptor type 2; assay: Counterscreen assay for antagonists of the orexin 1 receptor (OX1R; HCRTR1): Fluorescence-based cell-based dose response assay for antagonists of the orexin 2 receptor (OX2R; HCRTR2), run by assay provider.; format: functional
[11] = molecular target: T3, Orexin/Hypocretin receptor type 1; assay: Fluorescence-based cell-based high throughput dose response assay for antagonists of the orexin 1 receptor (OX1R; HCRTR1). [Related pubchem assays (depositor defined):AID434989, AID435008, AID463079, AID485270, AID492963, AID492964, AID492965, AID493232, AID504717, AID504718]; format: functional
[12] = molecular target: T5, Apoptotic protease-activating factor 1 (Homo sapiens, UniProt O14727); assay: SAR analysis of small molecule Activators of Apaf-1 in a Fluorescent assay.; format: functional; settings: read-out: EC50_Mean;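 note: caspase-3 cleavage of fluorogenic Rh110 DEVD substrate downstream of apoptosome activation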
T5 sequence (O14727 whole entry): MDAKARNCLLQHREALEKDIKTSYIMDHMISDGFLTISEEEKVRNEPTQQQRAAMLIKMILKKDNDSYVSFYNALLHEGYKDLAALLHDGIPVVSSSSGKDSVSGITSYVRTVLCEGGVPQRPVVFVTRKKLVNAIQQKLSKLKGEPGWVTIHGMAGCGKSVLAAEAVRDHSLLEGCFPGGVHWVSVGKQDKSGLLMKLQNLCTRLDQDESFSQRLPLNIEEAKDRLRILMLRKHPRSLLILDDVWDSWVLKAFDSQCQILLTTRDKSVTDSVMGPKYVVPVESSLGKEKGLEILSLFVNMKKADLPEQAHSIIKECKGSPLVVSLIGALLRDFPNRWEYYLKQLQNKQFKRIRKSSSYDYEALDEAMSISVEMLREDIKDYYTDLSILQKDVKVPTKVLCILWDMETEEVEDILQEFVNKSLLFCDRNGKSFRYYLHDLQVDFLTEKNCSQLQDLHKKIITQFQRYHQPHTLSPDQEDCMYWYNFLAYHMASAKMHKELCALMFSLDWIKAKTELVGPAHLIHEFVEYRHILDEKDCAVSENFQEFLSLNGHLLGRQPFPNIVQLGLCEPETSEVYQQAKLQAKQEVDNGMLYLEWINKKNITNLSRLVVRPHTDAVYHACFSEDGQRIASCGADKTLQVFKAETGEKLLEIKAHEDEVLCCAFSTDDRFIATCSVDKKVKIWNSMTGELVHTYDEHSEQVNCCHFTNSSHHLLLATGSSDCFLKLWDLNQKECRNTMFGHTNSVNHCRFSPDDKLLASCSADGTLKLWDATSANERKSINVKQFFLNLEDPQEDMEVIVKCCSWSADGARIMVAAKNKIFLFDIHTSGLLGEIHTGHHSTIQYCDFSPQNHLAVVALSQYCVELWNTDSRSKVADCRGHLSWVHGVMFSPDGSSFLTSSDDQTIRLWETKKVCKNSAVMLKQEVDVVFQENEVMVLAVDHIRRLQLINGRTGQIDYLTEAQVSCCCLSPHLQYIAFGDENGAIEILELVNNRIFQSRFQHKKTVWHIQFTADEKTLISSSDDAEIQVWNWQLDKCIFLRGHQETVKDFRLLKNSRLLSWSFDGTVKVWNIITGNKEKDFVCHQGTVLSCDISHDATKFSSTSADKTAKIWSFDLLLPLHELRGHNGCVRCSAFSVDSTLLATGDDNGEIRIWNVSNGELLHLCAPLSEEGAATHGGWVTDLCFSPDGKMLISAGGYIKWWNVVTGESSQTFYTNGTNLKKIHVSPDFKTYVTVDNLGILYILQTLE

[13] = HepG2 cell cytotoxicity, dose response, cytotoxicity control for Shn3 inhibitor project, CellTiter-Glo, cherry-picked (AID 624134); format: functional, cell-based
Protein Wnt-3a = Protein Wnt-3a (Mus musculus, UniProt P27467); assay: Wnt3a-driven reporter signaling inhibition, dose response, selectivity assay for Gli-SUFU antagonist project, Wnt-LIGHT cells, luminescence (AID 651570); format: functional; settings: read-out: IC50_Mean;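 note: Wnt-LIGHT reporter cells stimulated with conditioned medium from Wnt3a-producing cells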
[14] = control 3'UTR Renilla luciferase suppression, dose response, counter-screen for Shn3 inhibitor project, cell-based, Clone20-Shn3RL, cherry-picked (AID 624133); format: functional
[15] = Shn3 3'UTR reporter inhibitors, dose response, cell-based, Clone20 osteoblasts, firefly luciferase, cherry-picked (AID 624132); format: functional;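 note: firefly luciferase luminescence from reporter carrying the Shn3 3'UTR in osteoblasts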
[16] = molecular target: Adenosylmethionine-8-amino-7-oxononanoate aminotransferase (Mycobacterium tuberculosis, UniProt P9WQ81); assay: Mycobacterium tuberculosis BioA enzyme inhibitor Measured in Biochemical System Using Plate Reader - 2163-02_Inhibitor_Dose_CherryPick_Activity.; format: functional, Mycobacterium tuberculosis UT205
Chain of Adenosylmethionine-8-amino-7-oxononanoate aminotransferase (P9WQ81 whole entry): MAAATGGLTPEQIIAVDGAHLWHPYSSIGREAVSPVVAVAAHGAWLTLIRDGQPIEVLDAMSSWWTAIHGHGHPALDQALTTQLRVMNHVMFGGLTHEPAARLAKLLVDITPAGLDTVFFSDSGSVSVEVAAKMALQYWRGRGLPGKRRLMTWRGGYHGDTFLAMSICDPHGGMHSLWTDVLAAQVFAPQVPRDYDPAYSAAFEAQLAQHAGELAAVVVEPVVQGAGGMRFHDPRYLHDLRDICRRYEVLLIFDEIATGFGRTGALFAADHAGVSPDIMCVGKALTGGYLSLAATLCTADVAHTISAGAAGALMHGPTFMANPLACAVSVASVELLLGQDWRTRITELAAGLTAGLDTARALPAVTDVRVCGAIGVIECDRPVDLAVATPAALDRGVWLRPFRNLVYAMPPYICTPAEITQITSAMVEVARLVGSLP

Chain of FAD-linked sulfhydryl oxidase ALR (P55789 whole entry): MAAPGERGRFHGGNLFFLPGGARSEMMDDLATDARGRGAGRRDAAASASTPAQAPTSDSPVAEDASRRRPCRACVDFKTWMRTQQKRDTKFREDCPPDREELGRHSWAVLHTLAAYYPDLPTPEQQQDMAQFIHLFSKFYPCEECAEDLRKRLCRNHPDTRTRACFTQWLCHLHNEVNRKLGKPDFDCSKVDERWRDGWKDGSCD
Chain of Potassium voltage-gated channel subfamily KQT member 2 (O88943 whole entry): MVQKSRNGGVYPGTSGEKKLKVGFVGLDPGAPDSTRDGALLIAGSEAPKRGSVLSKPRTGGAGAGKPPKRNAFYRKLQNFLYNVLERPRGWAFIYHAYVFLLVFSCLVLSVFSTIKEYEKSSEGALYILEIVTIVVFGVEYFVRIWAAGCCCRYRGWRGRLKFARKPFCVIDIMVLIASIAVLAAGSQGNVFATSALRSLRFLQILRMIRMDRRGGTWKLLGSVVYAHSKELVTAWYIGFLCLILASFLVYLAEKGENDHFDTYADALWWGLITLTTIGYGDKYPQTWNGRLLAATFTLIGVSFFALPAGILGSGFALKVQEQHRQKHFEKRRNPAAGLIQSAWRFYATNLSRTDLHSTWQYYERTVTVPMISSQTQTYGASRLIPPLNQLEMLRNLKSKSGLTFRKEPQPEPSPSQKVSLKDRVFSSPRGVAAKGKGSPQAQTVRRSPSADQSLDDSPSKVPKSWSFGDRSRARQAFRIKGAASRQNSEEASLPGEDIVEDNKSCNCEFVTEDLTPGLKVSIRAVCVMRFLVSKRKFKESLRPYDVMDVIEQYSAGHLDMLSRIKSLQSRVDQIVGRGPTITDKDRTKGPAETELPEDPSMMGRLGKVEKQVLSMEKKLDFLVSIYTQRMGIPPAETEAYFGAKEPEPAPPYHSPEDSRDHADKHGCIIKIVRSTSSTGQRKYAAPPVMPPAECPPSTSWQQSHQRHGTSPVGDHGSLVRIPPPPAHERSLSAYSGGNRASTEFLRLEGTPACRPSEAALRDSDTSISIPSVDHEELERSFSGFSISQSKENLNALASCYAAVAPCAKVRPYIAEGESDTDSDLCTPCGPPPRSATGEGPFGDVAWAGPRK
Chain of Protein Wnt-3a (P27467 whole entry): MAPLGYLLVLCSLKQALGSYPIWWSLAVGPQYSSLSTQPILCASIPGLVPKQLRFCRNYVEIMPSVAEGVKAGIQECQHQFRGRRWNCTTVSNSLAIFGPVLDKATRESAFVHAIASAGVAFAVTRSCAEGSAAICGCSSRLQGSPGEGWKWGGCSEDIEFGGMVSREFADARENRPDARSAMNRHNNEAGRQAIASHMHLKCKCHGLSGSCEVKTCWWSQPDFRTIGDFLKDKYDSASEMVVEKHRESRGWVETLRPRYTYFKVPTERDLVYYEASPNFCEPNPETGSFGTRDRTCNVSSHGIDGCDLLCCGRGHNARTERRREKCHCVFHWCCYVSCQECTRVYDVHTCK

CCC(CC)C(=O)N(CCc1ccc(OC)cc1)Cc1nc(O)c2ccccc2n1
IC50 [1]: 12.4 µM (active)
IC50 (H9c2): > 79 µM (inactive)

N#C/C(=N\Nc1ccc(Cl)cc1)C(N)=S
IC50 [2]: 5.01 µM (active)
IC50 [3]: 2.04 µM (active)
EC50 [4]: > 150 µM (not active)
EC50 (Streptococcus): > 150 µM (not active)
EC50 (Streptokinase A): > 150 µM (not active)
AC50 [5]: 7.86 µM (active)

O=C(NC(Cc1c[nH]c2ccccc12)C(=O)N/N=C/c1ccc(Cl)cc1)c1cccs1 (stereo unspecified)
IC50 [6]: 3.28 µM (active)
IC50 [7]: > 49.8 µM (inactive)
CC50 [8]: 14.7 µM (active)
IC50 (Orexin receptor type 2 [9]): > 50 µM (inactive)
IC50 (cells): 10.9 µM (active)
IC50 (CHO-K1): > 66.2 µM (inactive)
IC50 (Orexin receptor type 2 [10]): 24 µM (inactive)
IC50 [11]: 8.68 µM (active)

Cc1ccc(C(C)N=C(S)NC2CCCCC2)cc1C (stereo unspecified)
IC50 [2]: 8 µM (active)
IC50 [3]: 3.36 µM (active)

Cc1nn(-c2ccccc2)c2nc(N)c(C#N)c(-c3ccc(O)c(O)c3)c12
IC50 [6]: 9.34 µM (active)
IC50 [7]: 36.2 µM (inactive)
CC50 [8]: 17.4 µM (active)
IC50 (Orexin receptor type 2 [9]): > 50 µM (inactive)
IC50 (CHO-K1): > 66.2 µM (inactive)
IC50 (Orexin receptor type 2 [10]): > 88.8 µM (inactive)
IC50 [11]: > 5.53 µM (active)

CC(=O)c1ccc(N2C(=O)CC3(CC(c4ccc(Cl)cc4)=NO3)C2=O)cc1 (stereo unspecified)
EC50 [12]: > 100 µM (inactive)

C[C@@H]1COC(=O)[C@@H](NC(=O)OCC2c3ccccc3-c3ccccc32)C/C=C\C[C@@H](CC(=O)N(CCO)Cc2ccccc2)C(=O)N1
AC50 [13]: > 70 µM (inactive)
IC50 (Protein Wnt-3a): 3.34 µM (active)
AC50 [14]: 3.59 µM (active)
AC50 [15]: 1.89 µM (active)

Cc1c2cnn(CC(=O)NCc3ccccn3)c(=O)c2c(C)n1Cc1ccc(Cl)cc1
AC50 [16]: 2.49 µM (active)
